Laboratory results: patent US20240025862A1, “SUBSTITUTED N-PHENYLURACILS AND SALTS THEREOF, AND USE THEREOF AS HERBICIDAL ACTIVE SUBSTANCES” (Bayer Aktiengesellschaft, priority 2020, published 2024)

Columns and labels:
Assay type in all cases: in vivo
Veronica persica (VERPE) [1] = assay: Post-emergence herbicidal action, greenhouse pot test
Method in brief: (§1)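 Greenhouse-grown weeds in sandy loam were sprayed post-emergence at the one-leaf stage, 2–3 weeks after sowing. Compounds were formulated as WP or EC in water with 0.5% additive at 600 l/ha, at rates of 20 g/ha or less. Visual rating after about 3 weeks used a scale from 0% (like untreated control) to 100% (plants dead).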

[2] = tested on: Pharbitis purpurea (PHBPU); assay: as above; settings: dosage 5 g/ha
Method in brief: as §1

[3] = tested on: Amaranthus retroflexus (AMARE); assay: as above; settings: rated visually after about 3 weeks vs untreated controls, 100% = plants have died
Method in brief: as §1

Viola tricolor (VIOTR) = assay: as above
Method in brief: as §1

[4] = tested on: Abutilon theophrasti (ABUTH); assay: as above; settings: rated visually after about 3 weeks vs untreated controls, 100% = plants have died
Method in brief: as §1

[5] = tested on: Polygonum convolvulus (POLCO); assay: as above; settings: dosage 5 g/ha
Method in brief: as §1

Veronica persica (VERPE) [6] = assay: Pre-emergence herbicidal action, greenhouse pot test; settings: scored after about 3 weeks
Text: (§2) Seeds of monocotyledonous and dicotyledonous weed plants and crop plants were placed in plastic or organic planting pots and covered with soil. The compounds of the invention, formulated in the form of wettable powders (WP) or as emulsion concentrates (EC), were then applied to the surface of the covering soil as aqueous suspension or emulsion with addition of 0.5% additive at a water application rate equivalent to 600 l/ha (converted). After the treatment, the pots were placed in a greenhouse and kept under good growth conditions for the test plants. After about 3 weeks, the effect of the preparations was scored visually in comparison with untreated controls as percentages. For example, 100% activity=the plants have died, 0% activity=like control plants.
(§3) Tables B1 to B10 below show the effects of selected compounds of the general formula (I) according to Tables I.1 to I.33 on various harmful plants and at an application rate corresponding to 80 g/ha and less, which were obtained by the experimental method specified above. The appendices “a”, “b” and “c” give differentiation by different dosage with otherwise the same harmful plants tested.

[7] = tested on: Pharbitis purpurea (PHBPU); assay: as above; settings: scored after about 3 weeks
Text: as §2, §3

[8] = tested on: Matricaria inodora (MATIN); assay: as above; settings: scored after about 3 weeks
Text: as §2, §3

Lolium rigidum (LOLRI) = assay: as above; settings: scored after about 3 weeks
Text: as §2, §3

[9] = tested on: Echinochloa crus-galli (ECHCG); assay: as above; settings: scored after about 3 weeks
Text: as §2, §3

[10] = tested on: Alopecurus myosuroides (ALOMY); assay: as above; settings: scored after about 3 weeks
Text: as §2, §3

[11] = tested on: Digitaria sanguinalis (DIGSA); assay: as above; settings: scored after about 3 weeks
Text: as §2, §3

[12] = tested on: Amaranthus retroflexus (AMARE); assay: as above; settings: scored after about 3 weeks
Text: as §2, §3

[13] = tested on: Abutilon theophrasti (ABUTH); assay: as above; settings: scored after about 3 weeks
Text: as §2, §3

Avena fatua (AVEFA) = assay: as above; settings: 80 g/ha, scored after about 3 weeks
Text: as §2, §3

Glycine max (GLXMA) = assay: Pre-emergence crop plant compatibility, greenhouse pot test; settings: 20 g/ha
Text: as §2
(§4) The observed effects on selected crop plants are reported here in comparison to the untreated controls (values in %).

Zea mays (ZEAMX) = assay: as above; settings: 20 g/ha
Text: as §2, §4

Oryza sativa (ORYSA) = assay: Post-emergence crop plant compatibility, greenhouse pot test (also comparative test C); settings: vs untreated controls
Method in brief: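 Rice and other crops sprayed post-emergence at one-leaf stage (2–3 weeks after sowing) with WP or EC formulations plus 0.5% additive at 600 l/ha water. Visual rating about 3 weeks later versus untreated controls (100% = dead, 0% = like control); suffixes a–c denote different doses.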

Brassica napus (BRSNW) = assay: Post-emergence crop plant compatibility, greenhouse pot test; settings: 1.25 g/ha, vs untreated controls
Method in brief: (§5)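 Greenhouse-grown crop plants sprayed post-emergence at the one-leaf stage with WP or EC formulations plus 0.5% additive, at 600 l/ha water. Damage rated visually after about 3 weeks versus untreated controls (0% = like control, 100% = dead); suffixes a/b/c denote different dosages.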

[14] = tested on: Triticum aestivum (TRZAS); assay: as above; settings: 1.25 g/ha, vs untreated controls
Method in brief: as §5

Setaria viridis (SETVI) = assay: Post-emergence herbicidal action, greenhouse pot test (also comparative test C)
Method in brief: (§6)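 Visual rating against untreated controls, about 3 weeks after spraying, from 0% (like control) to 100% (plants dead). Weeds were treated at the one-leaf stage, 2–3 weeks after sowing in sandy loam, with aqueous WP/EC spray containing 0.5% additive at 600 l/ha. Doses were ≤20 g/ha, or ≤5 g/ha for comparative test C.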

[15] = tested on: Matricaria inodora (MATIN); assay: as above
Method in brief: as §6

[16] = tested on: Echinochloa crus-galli (ECHCG); assay: as above; settings: dosage 5 g/ha
Method in brief: as §6

[17] = tested on: Alopecurus myosuroides (ALOMY); assay: as above; settings: rated visually after about 3 weeks vs untreated controls, 100% = plants have died
Method in brief: as §6

COCCOCCOC(=O)COc1ccccc1Oc1cc(-n2c(=O)cc(C(F)(F)F)n(C)c2=O)c(F)cc1Cl [I.7-23]
20%: Pre-emergence action against ZEAMX in % (Zea mays (ZEAMX)) | Post-emergence action against ORYSA (crop plant compatibility) (Oryza sativa (ORYSA); 5 g/ha) | Post-emergence action against BRSNW (crop plant compatibility) (Brassica napus (BRSNW))
10%: Pre-emergence action against GLXMA in % (Glycine max (GLXMA)) | Post-emergence action against ORYSA (crop plant compatibility) (Oryza sativa (ORYSA); 1.25 g/ha) | Post-emergence action against TRZAS (crop plant compatibility) [14]
100%: Post-emergence action against VERPE (Veronica persica (VERPE) [1]; 5 g/ha) | Post-emergence action against PHBPU in % [2] | Post-emergence action at 1.25 g/ha against AMARE in % ([3]; 1.25 g/ha) | Post-emergence action at 5 g/ha against AMARE in % ([3]; 5 g/ha) | Post-emergence action against VIOTR (Viola tricolor (VIOTR); 1.25 g/ha) | Post-emergence action against VIOTR (Viola tricolor (VIOTR); 5 g/ha) | Post-emergence action at 1.25 g/ha against ABUTH in % ([4]; 1.25 g/ha) | Post-emergence action at 5 g/ha against ABUTH in % ([4]; 5 g/ha) | Post-emergence action against POLCO in % [5] | Pre-emergence action against VERPE in % (Veronica persica (VERPE) [6]; 20 g/ha) | Pre-emergence action against VERPE in % (Veronica persica (VERPE) [6]; 80 g/ha) | Pre-emergence action against PHBPU in % ([7]; 20 g/ha) | Pre-emergence action against PHBPU in % ([7]; 80 g/ha) | Pre-emergence action against MATIN in % ([8]; 20 g/ha) | Pre-emergence action against MATIN in % ([8]; 80 g/ha) | Pre-emergence action against LOLRI in % (Lolium rigidum (LOLRI); 80 g/ha) | Pre-emergence action against ALOMY in % ([10]; 80 g/ha) | Pre-emergence action against DIGSA in % ([11]; 20 g/ha) | Pre-emergence action against DIGSA in % ([11]; 80 g/ha) | Pre-emergence action against AMARE in % ([12]; 20 g/ha) | Pre-emergence action against AMARE in % ([12]; 80 g/ha) | Pre-emergence action against ABUTH in % ([13]; 20 g/ha) | Pre-emergence action against ABUTH in % ([13]; 80 g/ha) | Post-emergence action against SETVI in % (Setaria viridis (SETVI); dosage 1.25 g/ha) | Post-emergence action against SETVI in % (Setaria viridis (SETVI); dosage 5 g/ha) | Post-emergence action against MATIN in % ([15]; dosage 5 g/ha) | Post-emergence action against ECHCG in % [16] | Post-emergence action at 5 g/ha against ALOMY in % ([17]; 5 g/ha)
90%: Post-emergence action against VERPE (Veronica persica (VERPE) [1]; 1.25 g/ha) | Pre-emergence action against LOLRI in % (Lolium rigidum (LOLRI); 20 g/ha) | Pre-emergence action against ECHCG in % ([9]; 80 g/ha) | Pre-emergence action against ALOMY in % ([10]; 20 g/ha) | Pre-emergence action against AVEFA in % (Avena fatua (AVEFA)) | Post-emergence action against MATIN in % ([15]; dosage 1.25 g/ha)
80%: Pre-emergence action against ECHCG in % ([9]; 20 g/ha) | Post-emergence action at 1.25 g/ha against ALOMY in % ([17]; 1.25 g/ha)
